Test results taken from patent US20230257351A1, “SUBSTITUTED N-[…] HAVING P2X4 RECEPTOR ANTAGONISTIC ACTIVITY” (Bayer Aktiengesellschaft, priority 2020, published 2023).

What was measured:
human P2X4 = target: T1, human P2X4 (Homo sapiens, UniProt Q99571); experiment: Human P2X4 HEK Cell FLIPR Assay; type: cell-based; details: HEK293 stably expressing human P2X4, agonist Bz-ATP 3 μM (EC80); for IC50: read-out: Human P2X4 HEK Cells (FLIPR Assay) avg IC50
T1 construct: expressed in transfected cells
T1 sequence (Q99571 1-388): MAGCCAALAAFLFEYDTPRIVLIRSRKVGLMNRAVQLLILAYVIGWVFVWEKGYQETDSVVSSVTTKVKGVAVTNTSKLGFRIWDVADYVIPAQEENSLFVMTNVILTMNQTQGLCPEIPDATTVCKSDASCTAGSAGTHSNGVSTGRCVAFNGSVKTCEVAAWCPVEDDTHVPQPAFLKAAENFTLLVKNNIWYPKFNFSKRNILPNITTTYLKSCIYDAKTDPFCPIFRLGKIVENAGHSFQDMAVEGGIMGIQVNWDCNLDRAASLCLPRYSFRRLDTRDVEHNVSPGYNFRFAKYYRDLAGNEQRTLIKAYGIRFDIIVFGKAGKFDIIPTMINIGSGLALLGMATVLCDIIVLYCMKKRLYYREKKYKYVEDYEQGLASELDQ
Method in brief: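 HEK293 cells stably expressing human P2X4 were loaded with Fluo8-AM (30 min, 37 °C, HBSS/HEPES pH 7.4 with probenecid), then preincubated 30 min at room temperature with compound, 25 μM–1 nM final, 0.5% DMSO. Bz-ATP-evoked calcium fluorescence was read on FLIPR; data were normalized to agonist control and given a four-parameter fit for IC50.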

rat P2X4 = target: T2, rat P2X4 (Rattus norvegicus, UniProt P51577); experiment: FLIPR Method for Rat P2X4 1321N1 Astrocytoma Cells; type: cell-based; details: 1321N1 stably expressing rat P2X4; agonist MgATP 5 μM (EC80)
T2 construct: expressed in transfected cells
T2 sequence (P51577 1-388): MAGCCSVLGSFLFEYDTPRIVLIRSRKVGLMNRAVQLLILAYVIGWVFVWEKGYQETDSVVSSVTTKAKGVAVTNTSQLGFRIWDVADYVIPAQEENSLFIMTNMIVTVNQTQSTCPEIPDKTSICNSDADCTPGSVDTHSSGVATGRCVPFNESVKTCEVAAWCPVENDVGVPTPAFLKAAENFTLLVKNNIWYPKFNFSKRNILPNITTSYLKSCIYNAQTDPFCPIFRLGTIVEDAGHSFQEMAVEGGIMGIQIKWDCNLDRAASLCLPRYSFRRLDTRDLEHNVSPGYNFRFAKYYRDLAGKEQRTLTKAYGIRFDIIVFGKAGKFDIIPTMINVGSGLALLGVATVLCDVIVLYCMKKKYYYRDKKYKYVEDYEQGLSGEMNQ
Method in brief: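 1321N1 cells stably expressing rat P2X4, Fluo8-AM loaded; compounds (25 μM to 1 nM final, ten concentrations) preincubated 30 min at room temperature, then MgATP added at 5 μM (EC80). Calcium fluorescence read on FLIPR before and after agonist; triplicate data normalized to agonist control, four-parameter fit gives IC50.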

| Structure (SMILES) | Human P2X4 HEK Cells (FLIPR Assay) avg Efficacy (human P2X4) [%] | IC50 (human P2X4) [nM] | IC50 (rat P2X4) [nM] | Rat P2X4 1321N1 Astrocytoma Cells (FLIPR Assay) avg Efficacy (rat P2X4) [%] |
| --- | --- | --- | --- | --- |
| COc1cccc(N(C(C)=O)c2cc(NC(=O)Cc3cccc(F)c3Cl)ccn2)c1 [Example 101, N-{4-[2-(2-chloro-3-fluorophenyl)acetamido]pyridin-2-yl}-N-(3-methoxyphenyl)acetamide] | 97 | 406 | 971 | 100 |
| CC(=O)N(c1cc(NC(=O)Cc2ccccc2Cl)ccn1)c1cc(F)ccc1Cl [Example 111, N-(2-chloro-5-fluorophenyl)-N-{4-[2-(2-chlorophenyl)acetamido]pyridin-2-yl}acetamide] | 96 | 204 | 320 | 100 |
| CC(=O)N(c1cc(NC(=O)Cc2ccc(F)cc2Cl)ccn1)c1cc(F)ccc1Cl [Example 112, N-(2-chloro-5-fluorophenyl)-N-{4-[2-(2-chloro-4-fluorophenyl)acetamido]pyridin-2-yl}acetamide] | 96 | 403 | 408 | 97 |
| CC(=O)N(c1cc(NC(=O)Cc2cccc(F)c2Cl)ccn1)c1cc(F)ccc1Cl [Example 113, N-(2-chloro-5-fluorophenyl)-N-{4-[2-(2-chloro-3-fluorophenyl)acetamido]pyridin-2-yl}acetamide] | 97 | 286 | 567 | 100 |
| CC(=O)N(c1cc(NC(=O)Cc2c(Cl)cccc2Cl)ccn1)c1cc(F)ccc1Cl [Example 114, N-(2-chloro-5-fluorophenyl)-N-{4-[2-(2,6-dichlorophenyl)acetamido]pyridin-2-yl}acetamide] | 97 | 256 | 181 | 99 |
| CC(=O)N(c1cc(NC(=O)Cc2ccc(F)cc2Cl)ccn1)c1cccc(F)c1F [Example 123, N-{4-[2-(2-chloro-4-fluorophenyl)acetamido]pyridin-2-yl}-N-(2,3-difluorophenyl)acetamide] | 97 | 435 | 633 | 89 |

Now from value to compound:

| Human P2X4 HEK Cells (FLIPR Assay) avg Efficacy (human P2X4) [%] | IC50 (human P2X4) [nM] | IC50 (rat P2X4) [nM] | Rat P2X4 1321N1 Astrocytoma Cells (FLIPR Assay) avg Efficacy (rat P2X4) [%] | Structure (SMILES) |
| --- | --- | --- | --- | --- |
| 96 | 176 | 377 | 83 | CC(=O)N(c1cc(NC(=O)Cc2ccccc2Cl)ccn1)c1ccc(F)cc1F [Example 126, N-{4-[2-(2-chlorophenyl)acetamido]pyridin-2-yl}-N-(2,4-difluorophenyl)acetamide] |
| 97 | 283 | 261 | 72 | CC(=O)N(c1cc(NC(=O)Cc2ccc(F)cc2Cl)ccn1)c1ccc(F)cc1F [Example 127, N-{4-[2-(2-chloro-4-fluorophenyl)acetamido]pyridin-2-yl}-N-(2,4-difluorophenyl)acetamide] |
| 101 | 184 | 454 | 87 | CC(=O)N(c1cc(NC(=O)Cc2cccc(F)c2Cl)ccn1)c1ccc(F)cc1F [Example 128, N-{4-[2-(2-chloro-3-fluorophenyl)acetamido]pyridin-2-yl}-N-(2,4-difluorophenyl)acetamide] |
| 104 | 197 | 212 | 96 | CC(=O)N(c1cc(NC(=O)Cc2c(Cl)cccc2Cl)ccn1)c1ccc(F)cc1F [Example 129, N-{4-[2-(2,6-dichlorophenyl)acetamido]pyridin-2-yl}-N-(2,4-difluorophenyl)acetamide] |
